Experimental data taken from US11744853B2, “Method of administration and treatment” (Dyve Biosciences, Inc., priority 2017, dated 2023).

Key:
[1] = tested on: MCF-7 cells; assay: Doxorubicin uptake and cytotoxicity in MCF-7 cells at medium pH 6.8 or 7.4 (Example 9); format: cell-based
Procedure: Medium pH was buffered using non-volatile buffers (10 mM MES, 20 mM HEPES and 10 mM TRICINE) in combination with bicarbonate concentrations that were adjusted to be in equilibrium with 5% ambient carbon dioxide. Twenty-four hours later, regular growth medium was replaced and cells allowed to grow a subsequent 72 h, after which time they were fixed and stained with crystal violet for determination of cell number.

[2] = tested on: MCF-7 tumors; assay: MCF-7 tumor growth in SCID mice, doxorubicin with oral or topical bicarbonate (Example 9); format: in vivo; conditions: B doxorubicin 1.6 mg/kg i.p. days 3, 7, 11; C oral 200 mM bicarbonate; D oral bicarbonate + doxorubicin; E topical formulation 150 μL/day; F topical + doxorubicin
Source text: The start of the bicarbonate treatment was designated as day 1. […] On day 15, animals in Groups C and D were placed back on normal drinking water and animals in Groups E and F ceased received t.i.d. topical applications.
Tumor volumes and animal weights were monitored every 2 days.

## doxorubicin
[1]; 14C doxorubicin
  increase in intracellular doxorubicin concentrations on raising the pHe from 6.8 to 7.4: 2.56 fold
[1]; 24 h exposure, crystal violet after a subsequent 72 h
  enhancement of cytotoxicity on raising the pHe from 6.8 to 7.4: 2.25 fold
[2]
  reduction in tumor growth rate: ~30%
